The species named for test [1] is Rattus norvegicus. Kind of test: Intrinsic activity in rat aorta was determined. In kind it is functional.
For test [2], the species on record is Rattus norvegicus. Kind of test: Negative logarithm of the molar concentration required to relax rat aorta precontracted with 30 mM KCL by 50% of intrinsic activity. In kind it is functional.

Turning to `N#Cc1ccc2c(c1)C(c1cccc[n+]1[O-])=CC(CF)(CF)O2`, the Intrinsic activity in the test listed under Rattus norvegicus [1] is on record as 71.1%. Also, it took 16.6 nM to reach a half-maximal effect in the test listed under Rattus norvegicus [2] (EC50).
`O=[N+]([O-])c1ccc2c(c1)C(c1cccc[n+]1[O-])=CC(CF)(CF)O2`: the Intrinsic activity in the test filed under Rattus norvegicus [1] was determined as 66.3%. Besides, the concentration for a half-maximal effect (EC50) (commonly the midpoint of the concentration-response curve) in the test filed under Rattus norvegicus [2] is 1.74 nM.
For the molecule `O=C([N-][n+]1ccccc1C1=CC(CF)(CF)Oc2ccc([N+](=O)[O-])cc21)Nc1ccccc1`, the Intrinsic activity in the test filed under Rattus norvegicus [1] is given as 89.5%. The same molecule showed an EC50 in the test filed under Rattus norvegicus [2] of 9120 nM.
Take `N#C[N-][n+]1ccccc1C1=CC(CF)(CF)Oc2ccc(C(F)(F)F)cc21`: the Intrinsic activity in the test listed under Rattus norvegicus [1] turned out to be 62.3%. The molecule also showed an EC50 in the test filed under Rattus norvegicus [2] of 9.55 nM.
In the case of `CC1(C)C=C(c2cccc[n+]2[N-]C#N)c2cc(C#N)ccc2O1`, in the test filed under Rattus norvegicus [1], the Intrinsic activity was 63.2%. In the test listed under Rattus norvegicus [2], this molecule had a concentration giving a half-maximal response (EC50) of 97.7 nM.
As to `N#C[N-][n+]1ccccc1C1=CC(CF)(CF)Oc2ccc([N+](=O)[O-])cc21`, the Intrinsic activity in the test listed under Rattus norvegicus [1] is recorded as 72.7%. The response in the test listed under Rattus norvegicus [2] was half-maximal at 4.57 nM (EC50).
In turn, `O=[N+]([O-])[N-][n+]1ccccc1C1=CC(CF)(CF)Oc2ccc([N+](=O)[O-])cc21` registered an Intrinsic activity in the test filed under Rattus norvegicus [1] of 98.5%. In the test listed under Rattus norvegicus [2], this molecule showed a concentration for a half-maximal effect (EC50) of 1000 nM.
The molecule `O=C([N-][n+]1ccccc1C1=CC(CF)(CF)Oc2ccc([N+](=O)[O-])cc21)c1ccccc1` had an EC50 in the test listed under Rattus norvegicus [2] greater than 10000 nM.
Take `N#C[N-][n+]1ccccc1C1=CC(CF)(CF)Oc2ccc(C(F)(F)C(F)(F)F)cc21`: the Intrinsic activity in the test listed under Rattus norvegicus [1] was determined as 71.9%. This molecule also gave a half-maximal effective concentration (EC50) in the test listed under Rattus norvegicus [2] of 2.95 nM.
In the case of `N#C[N-][n+]1ccccc1C1=CC(CF)(CF)Oc2ccc(C(F)(F)C(F)(F)C(F)(F)F)cc21`, the Intrinsic activity in the test listed under Rattus norvegicus [1] turned out to be 74.6%. This molecule also showed an EC50 in the test filed under Rattus norvegicus [2] of 17.8 nM.
In turn, `CC1(C)C=C(c2cccc[n+]2[O-])c2cc(C#N)ccc2O1` displayed an Intrinsic activity in the test listed under Rattus norvegicus [1] of 78.2%. A half-maximal effect in the test listed under Rattus norvegicus [2] (EC50) was put at 24.5 nM.
In turn, `N#C[N-][n+]1ccccc1C1=CC(CF)(CF)Oc2ccc(C#N)cc21` had an Intrinsic activity in the test filed under Rattus norvegicus [1] of 76.9%. Moreover, in the test filed under Rattus norvegicus [2], a half-maximal effect (EC50) was put at 51.3 nM.
On to `CC(=O)[N-][n+]1ccccc1C1=CC(CF)(CF)Oc2ccc([N+](=O)[O-])cc21`, for which, in the test listed under Rattus norvegicus [2], the EC50 is greater than 10000 nM.
Molecule `CS(=O)(=O)[N-][n+]1ccccc1C1=CC(CF)(CF)Oc2ccc([N+](=O)[O-])cc21` displayed an Intrinsic activity in the test listed under Rattus norvegicus [1] of 74.2%. Also, the midpoint of the response in the test filed under Rattus norvegicus [2], the EC50, lay at 3020 nM.
On the same counts, the results for `CC1(C)Oc2ccc(C#N)cc2[C@@H](N2CCCC2=O)[C@@H]1O` [LEVCROMAKALIM] are 72.5% and 162 nM.
